Experimental data reported in patent publication US20230074545A1, “TREATMENT OF CANCER WITH CDK12/13 INHIBITORS” (Kinnate Biopharma Inc., priority 2019, published 2023).

Legend:
Test in all cases: Radiometric kinase panel
Format in all cases: biochemical
RAF1 YDYD = molecular target: T1, RAF1 YDYD (Homo sapiens, UniProt P04049, Y340D/Y341D)
T1 construct: either as full-length or enzymatically active fragments; purchased ProQinase GmbH (Reaction Biology); host or cells: Sf9 insect cells or E. coli (not specified per kinase)
How it was run: (§1)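 Activity was measured radiometrically from [gamma-33P]-ATP incorporation into substrate. The kinases were recombinant human GST- or His-tagged proteins, full-length or active fragments, expressed in Sf9 or E. coli. Compound in 10% DMSO was added before the enzyme/substrate mix, which started the reaction.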

BLK = molecular target: T2, BLK (Homo sapiens, UniProt P51451)
T2 construct: purchased ProQinase GmbH (Reaction Biology)
How it was run: as §1

PKA = molecular target: T3, PKA (Homo sapiens, UniProt P17612)
T3 construct: either as full-length or enzymatically active fragments; purchased ProQinase GmbH (Reaction Biology); host or cells: Sf9 insect cells or E. coli
How it was run: as §1

FLT3 = molecular target: T4, FLT3 (Homo sapiens, UniProt P36888)
T4 construct: either as full-length or enzymatically active fragments; purchased ProQinase GmbH (Reaction Biology)
How it was run: as §1

CDK20/CycH = molecular target: T5, CDK20/CycH (Homo sapiens, UniProt Q8IZL9)
T5 construct: purchased ProQinase GmbH (Reaction Biology)
How it was run: as §1

MAP3K9 = molecular target: T6, MAP3K9 (Homo sapiens, UniProt P80192)
T6 construct: either as full-length or enzymatically active fragments; purchased ProQinase GmbH (Reaction Biology)
How it was run: as §1

RPS6KA3 = molecular target: T7, RPS6KA3 (Homo sapiens, UniProt P51812)
T7 construct: purchased ProQinase GmbH (Reaction Biology); host or cells: Sf9 insect cells or E. coli (not specified per kinase)
How it was run: as §1

NIK = molecular target: T8, NIK (Homo sapiens, UniProt Q99558)
T8 construct: purchased ProQinase GmbH (Reaction Biology)
How it was run: as §1

TGFBR1 = molecular target: T9, TGFBR1 (Homo sapiens, UniProt P36897)
T9 construct: either as full-length or enzymatically active fragments; purchased ProQinase GmbH (Reaction Biology)
How it was run: as §1

FGFR4 = molecular target: T10, FGFR4 (Homo sapiens, UniProt P22455)
T10 construct: either as full-length or enzymatically active fragments; purchased ProQinase GmbH (Reaction Biology)
How it was run: as §1

MKK6 SDTD = molecular target: T11, MKK6 SDTD (Homo sapiens, UniProt P52564, S207D/T211D)
T11 construct: either as full-length or enzymatically active fragments; purchased ProQinase GmbH (Reaction Biology); host or cells: Sf9 insect cells or E. coli (not specified per kinase)
How it was run: as §1

JNK1 = molecular target: T12, JNK1 (Homo sapiens, UniProt P45983)
T12 construct: either as full-length or enzymatically active fragments; purchased ProQinase GmbH (Reaction Biology)
How it was run: as §1

CK1gamma1 = molecular target: T13, CK1gamma1 (Homo sapiens, UniProt Q9HCP0)
T13 construct: either as full-length or enzymatically active fragments; purchased ProQinase GmbH (Reaction Biology)
How it was run: as §1

MEK1 = molecular target: T14, MEK1 (Homo sapiens, UniProt Q02750)
T14 construct: either as full-length or enzymatically active fragments; purchased ProQinase GmbH (Reaction Biology); host or cells: Sf9 insect cells or E. coli
How it was run: as §1

PLK1 = molecular target: T15, PLK1 (Homo sapiens, UniProt P53350)
T15 construct: either as full-length or enzymatically active fragments; purchased ProQinase GmbH (Reaction Biology)
How it was run: as §1

TLK2 = molecular target: T16, TLK2 (Homo sapiens, UniProt Q86UE8)
T16 construct: either as full-length or enzymatically active fragments; purchased ProQinase GmbH (Reaction Biology)
How it was run: as §1

CAMK2D = molecular target: T17, CAMK2D (Homo sapiens, UniProt Q13557)
T17 construct: purchased ProQinase GmbH (Reaction Biology)
How it was run: as §1

PKCmu = molecular target: T18, PKCmu (Homo sapiens, UniProt Q15139)
T18 construct: either as full-length or enzymatically active fragments; purchased ProQinase GmbH (Reaction Biology)
How it was run: as §1

COT = molecular target: T19, COT (Homo sapiens, UniProt P41279)
T19 construct: either as full-length or enzymatically active fragments; purchased ProQinase GmbH (Reaction Biology)
How it was run: as §1

CDK7/CycH/MAT1 = molecular target: T20, CDK7/CycH/MAT1 (Homo sapiens, UniProt P50613)
T20 construct: either as full-length or enzymatically active fragments; purchased ProQinase GmbH (Reaction Biology)
How it was run: as §1

VEGFR2 = molecular target: T21, VEGFR2 (Homo sapiens, UniProt P35968)
T21 construct: either as full-length or enzymatically active fragments; purchased ProQinase GmbH (Reaction Biology); host or cells: Sf9 insect cells or E. coli
How it was run: as §1

GRK4 = molecular target: T22, GRK4 (Homo sapiens, UniProt P32298)
T22 construct: either as full-length or enzymatically active fragments; purchased ProQinase GmbH (Reaction Biology)
How it was run: as §1

AMPKalpha1 = molecular target: T23, AMPKalpha1 (Homo sapiens, UniProt Q13131)
T23 construct: either as full-length or enzymatically active fragments; purchased ProQinase GmbH (Reaction Biology)
How it was run: as §1

WEE1 = molecular target: T24, WEE1 (Homo sapiens, UniProt P30291)
T24 construct: either as full-length or enzymatically active fragments; purchased ProQinase GmbH (Reaction Biology)
How it was run: as §1

ROCK1 = molecular target: T25, ROCK1 (Homo sapiens, UniProt Q13464)
T25 construct: either as full-length or enzymatically active fragments; purchased ProQinase GmbH (Reaction Biology)
How it was run: as §1

PKCgamma = molecular target: T26, PKCgamma (Homo sapiens, UniProt P05129)
T26 construct: either as full-length or enzymatically active fragments; purchased ProQinase GmbH (Reaction Biology)
How it was run: as §1

GSG2 = molecular target: T27, GSG2 (Homo sapiens, UniProt Q8TF76)
T27 construct: either as full-length or enzymatically active fragments; purchased ProQinase GmbH (Reaction Biology); host or cells: Sf9 insect cells or E. coli
How it was run: as §1

ROS = molecular target: T28, ROS (Homo sapiens, UniProt P08922)
T28 construct: either as full-length or enzymatically active fragments; purchased ProQinase GmbH (Reaction Biology)
How it was run: as §1

CDK4/CycD2 = molecular target: T29, CDK4/CycD2 (Homo sapiens, UniProt P11802)
T29 construct: purchased ProQinase GmbH (Reaction Biology)
How it was run: as §1

MAP3K10 = molecular target: T30, MAP3K10 (Homo sapiens, UniProt Q02779)
T30 construct: either as full-length or enzymatically active fragments; purchased ProQinase GmbH (Reaction Biology)
How it was run: as §1

T9 sequence (P36897 34-503): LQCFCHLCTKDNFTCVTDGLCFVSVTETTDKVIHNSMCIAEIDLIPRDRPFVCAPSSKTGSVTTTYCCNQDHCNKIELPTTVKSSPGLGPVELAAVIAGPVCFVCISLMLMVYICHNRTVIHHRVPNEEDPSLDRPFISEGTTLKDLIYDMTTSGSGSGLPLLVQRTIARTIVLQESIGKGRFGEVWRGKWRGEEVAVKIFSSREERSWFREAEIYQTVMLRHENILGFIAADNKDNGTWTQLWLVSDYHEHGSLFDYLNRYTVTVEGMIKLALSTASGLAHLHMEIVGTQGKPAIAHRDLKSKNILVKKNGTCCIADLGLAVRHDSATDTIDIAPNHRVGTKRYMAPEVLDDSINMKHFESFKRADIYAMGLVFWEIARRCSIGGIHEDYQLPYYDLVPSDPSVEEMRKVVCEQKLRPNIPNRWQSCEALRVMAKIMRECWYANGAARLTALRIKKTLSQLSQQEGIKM
T8 sequence (Q99558 whole entry): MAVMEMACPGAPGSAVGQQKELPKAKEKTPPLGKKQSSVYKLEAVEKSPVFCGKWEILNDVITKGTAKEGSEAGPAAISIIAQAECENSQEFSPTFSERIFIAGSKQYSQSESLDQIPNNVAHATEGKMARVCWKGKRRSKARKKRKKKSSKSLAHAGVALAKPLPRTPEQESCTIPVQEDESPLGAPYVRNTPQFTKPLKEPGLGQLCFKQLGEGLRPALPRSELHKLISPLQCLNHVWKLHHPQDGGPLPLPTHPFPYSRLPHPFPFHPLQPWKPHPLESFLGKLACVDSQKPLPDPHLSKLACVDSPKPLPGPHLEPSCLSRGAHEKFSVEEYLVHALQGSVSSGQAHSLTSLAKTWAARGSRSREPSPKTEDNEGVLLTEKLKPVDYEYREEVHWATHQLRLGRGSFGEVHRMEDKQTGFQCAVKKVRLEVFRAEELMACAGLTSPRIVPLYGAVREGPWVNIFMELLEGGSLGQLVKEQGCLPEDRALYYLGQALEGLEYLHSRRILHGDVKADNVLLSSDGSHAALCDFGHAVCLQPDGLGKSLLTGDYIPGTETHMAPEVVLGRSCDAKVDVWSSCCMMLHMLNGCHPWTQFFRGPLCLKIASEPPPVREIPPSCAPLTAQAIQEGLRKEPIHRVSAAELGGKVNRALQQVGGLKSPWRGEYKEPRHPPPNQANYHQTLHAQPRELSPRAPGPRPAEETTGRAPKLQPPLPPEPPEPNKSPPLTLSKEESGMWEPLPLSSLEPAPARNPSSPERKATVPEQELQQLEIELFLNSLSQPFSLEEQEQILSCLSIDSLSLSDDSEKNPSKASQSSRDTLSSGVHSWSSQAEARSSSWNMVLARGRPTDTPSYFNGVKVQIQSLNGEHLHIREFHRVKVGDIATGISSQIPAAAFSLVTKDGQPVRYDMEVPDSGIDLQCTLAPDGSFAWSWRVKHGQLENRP
T25 sequence (Q13464 whole entry, the tested form may be a part): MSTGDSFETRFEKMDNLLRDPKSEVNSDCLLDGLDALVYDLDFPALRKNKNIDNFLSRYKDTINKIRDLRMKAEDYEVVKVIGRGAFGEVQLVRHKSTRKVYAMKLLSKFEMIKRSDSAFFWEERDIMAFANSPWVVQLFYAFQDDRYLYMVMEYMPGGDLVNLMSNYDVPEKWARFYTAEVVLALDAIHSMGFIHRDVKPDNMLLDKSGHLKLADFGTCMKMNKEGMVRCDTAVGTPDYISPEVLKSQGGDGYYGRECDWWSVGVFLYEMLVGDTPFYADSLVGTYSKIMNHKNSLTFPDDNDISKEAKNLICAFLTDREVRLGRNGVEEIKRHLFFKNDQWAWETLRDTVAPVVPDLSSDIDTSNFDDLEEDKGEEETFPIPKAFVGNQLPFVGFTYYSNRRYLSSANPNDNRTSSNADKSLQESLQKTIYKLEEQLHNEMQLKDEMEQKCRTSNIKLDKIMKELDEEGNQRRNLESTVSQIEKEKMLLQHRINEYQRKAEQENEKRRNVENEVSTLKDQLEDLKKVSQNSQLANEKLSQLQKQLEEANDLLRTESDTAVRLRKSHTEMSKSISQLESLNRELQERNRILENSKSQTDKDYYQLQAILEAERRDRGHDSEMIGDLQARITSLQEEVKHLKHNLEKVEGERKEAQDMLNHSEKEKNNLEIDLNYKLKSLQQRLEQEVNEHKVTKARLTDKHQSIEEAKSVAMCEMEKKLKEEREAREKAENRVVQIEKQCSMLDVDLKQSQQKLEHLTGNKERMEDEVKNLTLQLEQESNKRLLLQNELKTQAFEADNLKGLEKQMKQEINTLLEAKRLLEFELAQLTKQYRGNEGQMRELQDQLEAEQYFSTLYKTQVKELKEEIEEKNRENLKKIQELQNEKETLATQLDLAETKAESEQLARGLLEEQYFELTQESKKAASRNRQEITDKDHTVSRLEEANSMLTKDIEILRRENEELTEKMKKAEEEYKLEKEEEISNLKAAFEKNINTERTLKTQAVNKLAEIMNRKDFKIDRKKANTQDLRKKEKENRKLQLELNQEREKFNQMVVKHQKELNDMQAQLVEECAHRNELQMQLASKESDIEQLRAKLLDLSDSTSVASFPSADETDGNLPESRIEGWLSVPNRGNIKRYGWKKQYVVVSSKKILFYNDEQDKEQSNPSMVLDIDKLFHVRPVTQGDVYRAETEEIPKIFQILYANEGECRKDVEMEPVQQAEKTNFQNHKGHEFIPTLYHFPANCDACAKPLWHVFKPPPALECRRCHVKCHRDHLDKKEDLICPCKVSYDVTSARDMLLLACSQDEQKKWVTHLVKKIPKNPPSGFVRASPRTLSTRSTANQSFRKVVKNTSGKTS
T10 sequence (P22455 22-802): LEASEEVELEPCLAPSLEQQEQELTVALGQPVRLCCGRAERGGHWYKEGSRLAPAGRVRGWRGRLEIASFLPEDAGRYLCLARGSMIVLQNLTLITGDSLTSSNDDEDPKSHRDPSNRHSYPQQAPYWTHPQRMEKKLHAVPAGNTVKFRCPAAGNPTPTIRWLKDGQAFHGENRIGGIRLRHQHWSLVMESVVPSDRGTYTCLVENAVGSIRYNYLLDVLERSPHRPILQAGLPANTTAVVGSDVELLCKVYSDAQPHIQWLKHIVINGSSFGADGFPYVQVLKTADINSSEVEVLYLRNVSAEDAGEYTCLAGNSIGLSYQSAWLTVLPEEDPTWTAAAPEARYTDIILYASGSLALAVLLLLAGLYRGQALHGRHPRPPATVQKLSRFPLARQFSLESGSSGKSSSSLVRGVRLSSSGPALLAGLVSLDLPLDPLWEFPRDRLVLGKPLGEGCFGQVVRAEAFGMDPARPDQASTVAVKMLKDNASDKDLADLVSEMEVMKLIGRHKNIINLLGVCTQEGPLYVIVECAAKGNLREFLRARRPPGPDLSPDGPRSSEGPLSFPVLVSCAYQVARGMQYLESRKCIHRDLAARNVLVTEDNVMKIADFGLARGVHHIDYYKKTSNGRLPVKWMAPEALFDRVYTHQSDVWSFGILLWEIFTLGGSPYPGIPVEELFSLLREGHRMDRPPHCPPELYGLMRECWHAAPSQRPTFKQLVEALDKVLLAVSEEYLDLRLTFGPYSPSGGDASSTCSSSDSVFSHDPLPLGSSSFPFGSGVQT
T14 sequence (Q02750 whole entry, the tested form may be a part): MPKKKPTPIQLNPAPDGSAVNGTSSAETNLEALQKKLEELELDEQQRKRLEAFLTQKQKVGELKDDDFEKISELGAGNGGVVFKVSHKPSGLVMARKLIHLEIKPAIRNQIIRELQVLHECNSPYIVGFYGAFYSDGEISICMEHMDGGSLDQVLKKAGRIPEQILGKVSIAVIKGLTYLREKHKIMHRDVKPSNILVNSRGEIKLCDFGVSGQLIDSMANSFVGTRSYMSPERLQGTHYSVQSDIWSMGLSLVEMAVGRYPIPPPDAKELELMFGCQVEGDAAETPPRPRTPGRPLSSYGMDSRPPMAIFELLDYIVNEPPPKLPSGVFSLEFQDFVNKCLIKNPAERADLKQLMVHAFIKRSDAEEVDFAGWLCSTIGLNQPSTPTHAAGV
T22 sequence (P32298 whole entry, the tested form may be a part): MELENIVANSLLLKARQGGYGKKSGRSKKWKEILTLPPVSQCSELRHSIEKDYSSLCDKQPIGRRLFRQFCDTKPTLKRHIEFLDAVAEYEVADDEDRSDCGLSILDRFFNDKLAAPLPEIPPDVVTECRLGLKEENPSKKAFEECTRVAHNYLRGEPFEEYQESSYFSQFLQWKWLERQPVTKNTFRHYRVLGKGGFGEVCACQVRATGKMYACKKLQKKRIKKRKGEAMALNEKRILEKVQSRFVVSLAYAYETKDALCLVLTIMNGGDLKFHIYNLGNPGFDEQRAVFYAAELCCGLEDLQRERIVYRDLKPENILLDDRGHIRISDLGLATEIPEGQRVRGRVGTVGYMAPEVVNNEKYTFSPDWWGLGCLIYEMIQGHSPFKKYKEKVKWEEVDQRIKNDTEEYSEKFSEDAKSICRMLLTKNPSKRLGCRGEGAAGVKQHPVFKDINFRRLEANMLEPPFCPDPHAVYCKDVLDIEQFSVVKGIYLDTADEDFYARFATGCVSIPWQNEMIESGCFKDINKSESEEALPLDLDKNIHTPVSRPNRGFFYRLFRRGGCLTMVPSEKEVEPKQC
T1 sequence (P04049 307-648 Y340D/Y341D limits assumed): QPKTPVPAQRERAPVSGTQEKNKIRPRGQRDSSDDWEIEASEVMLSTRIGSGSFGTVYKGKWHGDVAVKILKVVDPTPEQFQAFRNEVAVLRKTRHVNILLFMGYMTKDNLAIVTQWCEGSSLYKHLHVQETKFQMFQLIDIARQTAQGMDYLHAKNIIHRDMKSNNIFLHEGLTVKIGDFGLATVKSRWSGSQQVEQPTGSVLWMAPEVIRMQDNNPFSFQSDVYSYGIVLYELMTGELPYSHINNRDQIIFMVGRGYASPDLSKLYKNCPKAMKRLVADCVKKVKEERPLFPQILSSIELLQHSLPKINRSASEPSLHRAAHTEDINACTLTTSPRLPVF

Question: For `C=CC(=O)Nc1ccc(C(=O)N2CC[C@@H](Nc3ncc(C#N)cn3)C2)cc1` [Compound 4, (R)-N-(4-(3-((5-cyanopyrimidin-2-yl)amino)pyrrolidine-1-carbonyl)phenyl)acrylamide], which inhibition at 1 µM (RAF1 YDYD) is on record?
Answer: 9%

Question: And the inhibition at 1 µM (BLK)?
Answer: -2%

Question: What about the inhibition at 1 µM (PKA) of the same compound?
Answer: 13%

Question: What about the inhibition at 1 µM (FLT3) of the same compound?
Answer: -8%

Question: What about the inhibition at 1 µM (CDK20/CycH) of the same compound?
Answer: -2%

Question: And the inhibition at 1 µM (MAP3K9)?
Answer: -4%

Question: What about the inhibition at 1 µM (RPS6KA3) of the same compound?
Answer: 1%

Question: What about the inhibition at 1 µM (NIK) of the same compound?
Answer: -2%

Question: And the inhibition at 1 µM (TGFBR1)?
Answer: 7%

Question: What about the inhibition at 1 µM (FGFR4) of the same compound?
Answer: 2%

Question: And the inhibition at 1 µM (MKK6 SDTD)?
Answer: 11%

Question: What about the inhibition at 1 µM (JNK1) of the same compound?
Answer: 3%

Question: What about the inhibition at 1 µM (CK1gamma1) of the same compound?
Answer: -11%

Question: And the inhibition at 1 µM (MEK1)?
Answer: 13%

Question: What about the inhibition at 1 µM (PLK1) of the same compound?
Answer: 7%

Question: And the inhibition at 1 µM (TLK2)?
Answer: -10%

Question: And the inhibition at 1 µM (CAMK2D)?
Answer: 0%

Question: And the inhibition at 1 µM (PKCmu)?
Answer: 3%

Question: What about the inhibition at 1 µM (COT) of the same compound?
Answer: 6%

Question: And the inhibition at 1 µM (CDK7/CycH/MAT1)?
Answer: 33%

Question: And the inhibition at 1 µM (VEGFR2)?
Answer: 12%

Question: And the inhibition at 1 µM (GRK4)?
Answer: -13%

Question: What about the inhibition at 1 µM (AMPKalpha1) of the same compound?
Answer: 2%

Question: What about the inhibition at 1 µM (WEE1) of the same compound?
Answer: -5%

Question: And the inhibition at 1 µM (ROCK1)?
Answer: 15%

Question: What about the inhibition at 1 µM (PKCgamma) of the same compound?
Answer: -9%

Question: And the inhibition at 1 µM (GSG2)?
Answer: 13%

Question: What about the inhibition at 1 µM (ROS) of the same compound?
Answer: 2%

Question: And the inhibition at 1 µM (CDK4/CycD2)?
Answer: 0%

Question: And the inhibition at 1 µM (MAP3K10)?
Answer: -5%
